Biological target: T1, human 5-HT2B receptor (Homo sapiens, UniProt P41595)
T1 construct: expressed in transfected cells; host or cells: CHO cells
Test: Antagonism of human serotonin 5-HT2B, IP1 functional assay (HTRF) in transfected CHO cells
Assay type: cell-based
Conditions: inhibition of IP1 production induced by 30 nM 5-HT
Experimental: The human 5-HT2B receptor expressed in transfected CHO cells is used to determine antagonistic effects by measuring the effects on agonist-induced inositol monophosphate (IP1) production using the HTRF® detection method (Porter et al., 1999, Brit. J. Pharmacol., 128: 13-20; Trinquet et al., 2006, Analytical Biochemistry 358, 126-135) The CHO cells can be suspended in a buffer containing 10 mM Hepes/NaOH (pH 7.4), 4.2 mM KCl, 146 mM NaCl, 1 mM CaCl2, 0.5 mM MgCl2, 5.5 mM glucose and 50 mM LiCl, then distributed in microtiter plates at a density of about 20000 cells/well and preincubated for 5 min at room temperature in the presence of buffer (basal control), test compound, i.e. reference samples and inventive mixture of retinyl acetate (“retAc”) (see Table 1) or a very potent known reference antagonist SB-206553. Thereafter, the reference agonist 5-HT (serotonin) is added at a final concentration of 30 nM. […] Following 30 min incubation at 37° C., the cells are lysed and the fluorescence acceptor (D2-labeled IP1) and fluorescence donor (anti-IP1 antibody labeled with europium cryptate) are added. After 60 min at room temperature, the fluorescence transfer is measured at wavelengths Ex=337 nm and Em=620 and 665 nm using a microplate reader (Envision, Perkin Elmer). The IP1 concentration can be determined by dividing the signal measured at 665 nm by that measured at 620 nm (ratio). The results are expressed as a percent inhibition of the control response to 30 nM 5-HT. Mean values, standard deviation are calculated and used in a dose response model to calculate the IC50 values.
The standard reference antagonist SB-206553 is tested in each experiment at several concentrations to generate a concentration-response curve. The dose response curve is used to calculate the IC50 value. The same procedure is done for RetAc mix and the Reference RetAc to determine the IC50 values.

T1 sequence (P41595 whole entry): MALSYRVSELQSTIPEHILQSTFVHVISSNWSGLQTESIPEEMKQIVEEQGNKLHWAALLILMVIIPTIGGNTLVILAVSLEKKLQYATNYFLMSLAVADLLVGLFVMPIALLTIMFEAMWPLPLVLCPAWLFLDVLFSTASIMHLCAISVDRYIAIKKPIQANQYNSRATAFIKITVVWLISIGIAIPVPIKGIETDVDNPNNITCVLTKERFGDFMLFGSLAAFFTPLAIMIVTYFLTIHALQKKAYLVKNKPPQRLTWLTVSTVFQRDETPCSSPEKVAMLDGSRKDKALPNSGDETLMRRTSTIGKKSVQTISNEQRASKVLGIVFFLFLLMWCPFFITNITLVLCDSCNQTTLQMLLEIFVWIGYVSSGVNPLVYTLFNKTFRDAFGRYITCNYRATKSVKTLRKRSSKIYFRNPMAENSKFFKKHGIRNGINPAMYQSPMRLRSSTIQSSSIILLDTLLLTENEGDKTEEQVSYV

IC50 [µM] | SMILES
12 | CC(=O)OC/C=C(C)/C=C/C=C(C)/C=C/C1=C(C)CCCC1(C)C [Reference retAc, retinyl acetate]
5.2 | CC(=O)OC/C=C(C)/C=C/C=C(C)/C=C/C1=C(C)CCCC1(C)C [RetAc mix, retinyl acetate]

SMILES | IC50 [µM]
Cn1ccc2cc3c(cc21)CCN3C(=O)Nc1cccnc1 [SB-206553] | 0.026

Reference: patent US20250032439A1, “NOVEL COMPOSITIONS” (DSM IP ASSETS B.V., priority 2021, published 2025)
